US10376512B1, “Crystal of aniline pyrimidine compound of trifluoroethyl substituted indole and salt thereof” (CHIA TAI TIANQING PHARMACEUTICAL GROUP CO., LTD., priority 2018, dated 2019)

Assay: Stability test for crystals under accelerated conditions (light, high temperature, high humidity)
Type: physicochemical
Details: light 5000 Lx±500 Lx; high temperature 60° C.±2° C.; high humidity 75% RH±5% RH; samples taken on the 5th, 10th and 30th day
Description: The stability of the crystal according to the disclosure may be detected by placing the crystal in a high temperature, a high humidity, or a lighting condition. 40-60° C. may be selected for the high temperature, the relative humidity of 75%-92.5% RH may be selected for the high humidity condition, and 5000 Lux may be selected for the lighting condition. The crystal stability may be evaluated by investigating a plurality of data, such as content, total content of impurities, or water content, of the sample, and comprehensively evaluating the parameters according to the properties of the product.
The stability of the crystal according to the disclosure was investigated under accelerated test conditions according to the Guiding Principles for Stability Test of Crude Drugs and Pharmaceutical Preparations. The stabilities of the crystals obtained in Examples 1-8 were tested in a light environment at 5000 Lx±500 Lx, a high temperature environment at 60° C.±2° C., and a high humidity environment at 75% RH±5% RH, respectively. Samples were taken on the 5th day, the 10th day, and the 30th day, respectively, and the appearance properties, moisture contents, and total impurities of related substances of the samples were recorded for comparison with the initial data.

## C=CC(=O)Nc1cc(Nc2nccc(-c3cn(CC(F)(F)F)c4ccccc34)n2)c(OC)cc1N(C)CCN(C)C [Example 3]
  stability (appearance properties, moisture contents, total impurities of related substances compared with the initial data): better stability
